From patent US3948899A, “α-Cyanobenzylpiperazines and a process for producing the same” (Fuji Chemical Industry Co., Ltd., priority 1973, dated 1976)
Where a name gives a salt, the structure may show the parent alone.

Experiments:
Assay type in all cases: in vivo, dog
mongrel adult dogs [1] = assay: Effects on the work done by the left ventricle (thoractomized anesthetized dogs, i.v.)
Protocol: (§1) All experiments were conducted on male and female thoractomized mongrel adult dogs weighing about 10 Kg under anesthesia with pentobarbital sodium.
(§2) Arterial blood pressure was measured by pressure transducer (Nippon Koden MPU-0.5) connected with the cannula inserted from exposed carotid artery into aorta. Aortic blood flow was determined by means of electromagnetic flow meter (Nippon Koden MF-5) mounted at an origin of aorta. Coronary sinus out flow and coronary sinus oxygen tension were assessed by means of electromagnetic flow meter (Nippon Koden MF-5) and Po2 Macro electrode (Beckmann Moder 160-C), respectively, using Morawitz cannulization technique. Heart rate was measured by cardiotachometer (Nippon Koden RT-2) synchronized with systolic blood pressure of aorta.
The work done by the left ventricle is calculated according to the following equation: […]

mongrel adult dogs [2] = assay: Effects on coronary sinus out flow (thoractomized anesthetized dogs, i.v.)
Protocol: as §1, §2

mongrel adult dogs [3] = assay: Effects on arterial mean blood pressure (thoractomized anesthetized dogs, i.v.)
Protocol: as §1, §2

mongrel adult dogs [4] = assay: Effects on heart rate (thoractomized anesthetized dogs, i.v.); details: i.v. 0.2 mg/Kg, 1 min
Protocol: as §1, §2

COc1ccc(CN2CCNCC2)c(OC)c1OC [Vastarel F, 2,3,4 -trimethoxybenzylpiperazine dihydrochloride]
Changes(%) of basal values, work of left ventricle (mongrel adult dogs [1]; i.v. 0.2 mg/Kg, 1 min): -1.0%
Changes(%) of basal values, work of left ventricle (mongrel adult dogs [1]; i.v. 0.2 mg/Kg, 5 min): -2.5%
Changes(%) of basal values, work of left ventricle (mongrel adult dogs [1]; i.v. 0.2 mg/Kg, 10 min): -1.5%
Changes(%) of basal values, work of left ventricle (mongrel adult dogs [1]; i.v. 0.2 mg/Kg, 15 min): -1.0%
Changes(%) of basal values, work of left ventricle (mongrel adult dogs [1]; i.v. 0.2 mg/Kg, 20 min): 0%
Changes(%) of basal values, work of left ventricle (mongrel adult dogs [1]; i.v. 0.2 mg/Kg, 25 min): 0%
Changes(%) of basal values, work of left ventricle (mongrel adult dogs [1]; i.v. 0.2 mg/Kg, 30 min): 0%
Changes(%) of basal values, work of left ventricle (mongrel adult dogs [1]; i.v. 0.2 mg/Kg, imm.): -2.5%
Changes(%) of basal values, work of left ventricle (mongrel adult dogs [1]; i.v. 0.6 mg/Kg, 1 min): -2.0%
Changes(%) of basal values, work of left ventricle (mongrel adult dogs [1]; i.v. 0.6 mg/Kg, 5 min): -1.5%
Changes(%) of basal values, work of left ventricle (mongrel adult dogs [1]; i.v. 0.6 mg/Kg, 10 min): -2.0%
Changes(%) of basal values, work of left ventricle (mongrel adult dogs [1]; i.v. 0.6 mg/Kg, 15 min): -2.0%
Changes(%) of basal values, work of left ventricle (mongrel adult dogs [1]; i.v. 0.6 mg/Kg, 20 min): -1.0%
Changes(%) of basal values, work of left ventricle (mongrel adult dogs [1]; i.v. 0.6 mg/Kg, 25 min): -1.5%
Changes(%) of basal values, work of left ventricle (mongrel adult dogs [1]; i.v. 0.6 mg/Kg, 30 min): 0%
Changes(%) of basal values, work of left ventricle (mongrel adult dogs [1]; i.v. 0.6 mg/Kg, imm.): -4.5%
Changes(%) of basal values, work of left ventricle (mongrel adult dogs [1]; i.v. 2.0 mg/Kg, 1 min): -35.0%
Changes(%) of basal values, work of left ventricle (mongrel adult dogs [1]; i.v. 2.0 mg/Kg, 5 min): +9.0%
Changes(%) of basal values, work of left ventricle (mongrel adult dogs [1]; i.v. 2.0 mg/Kg, 10 min): +21.5%
Changes(%) of basal values, work of left ventricle (mongrel adult dogs [1]; i.v. 2.0 mg/Kg, 15 min): +10.0%
Changes(%) of basal values, work of left ventricle (mongrel adult dogs [1]; i.v. 2.0 mg/Kg, 20 min): +4.0%
Changes(%) of basal values, work of left ventricle (mongrel adult dogs [1]; i.v. 2.0 mg/Kg, 25 min): +3.5%
Changes(%) of basal values, work of left ventricle (mongrel adult dogs [1]; i.v. 2.0 mg/Kg, 30 min): +3.0%
Changes(%) of basal values, work of left ventricle (mongrel adult dogs [1]; i.v. 2.0 mg/Kg, imm.): -90.0%
Changes(%) of basal values, coronery sinus out flow (mongrel adult dogs [2]; i.v. 0.2 mg/Kg, 1 min): +1.0%
Changes(%) of basal values, coronery sinus out flow (mongrel adult dogs [2]; i.v. 0.2 mg/Kg, 5 min): 0%
Changes(%) of basal values, coronery sinus out flow (mongrel adult dogs [2]; i.v. 0.2 mg/Kg, 10 min): 0%
Changes(%) of basal values, coronery sinus out flow (mongrel adult dogs [2]; i.v. 0.2 mg/Kg, 15 min): 0%
Changes(%) of basal values, coronery sinus out flow (mongrel adult dogs [2]; i.v. 0.2 mg/Kg, 20 min): 0%
Changes(%) of basal values, coronery sinus out flow (mongrel adult dogs [2]; i.v. 0.2 mg/Kg, 25 min): 0%
Changes(%) of basal values, coronery sinus out flow (mongrel adult dogs [2]; i.v. 0.2 mg/Kg, 30 min): 0%
Changes(%) of basal values, coronery sinus out flow (mongrel adult dogs [2]; i.v. 0.2 mg/Kg, imm.): +4.0%
Changes(%) of basal values, coronery sinus out flow (mongrel adult dogs [2]; i.v. 0.6 mg/Kg, 1 min): +2.5%
Changes(%) of basal values, coronery sinus out flow (mongrel adult dogs [2]; i.v. 0.6 mg/Kg, 5 min): +2.5%
Changes(%) of basal values, coronery sinus out flow (mongrel adult dogs [2]; i.v. 0.6 mg/Kg, 10 min): 0%
Changes(%) of basal values, coronery sinus out flow (mongrel adult dogs [2]; i.v. 0.6 mg/Kg, 15 min): 0%
Changes(%) of basal values, coronery sinus out flow (mongrel adult dogs [2]; i.v. 0.6 mg/Kg, 20 min): 0%
Changes(%) of basal values, coronery sinus out flow (mongrel adult dogs [2]; i.v. 0.6 mg/Kg, 25 min): 0%
Changes(%) of basal values, coronery sinus out flow (mongrel adult dogs [2]; i.v. 0.6 mg/Kg, 30 min): 0%
Changes(%) of basal values, coronery sinus out flow (mongrel adult dogs [2]; i.v. 0.6 mg/Kg, imm.): +6.0%
Changes(%) of basal values, coronery sinus out flow (mongrel adult dogs [2]; i.v. 2.0 mg/Kg, 1 min): -3.0%
Changes(%) of basal values, coronery sinus out flow (mongrel adult dogs [2]; i.v. 2.0 mg/Kg, 5 min): +3.0%
Changes(%) of basal values, coronery sinus out flow (mongrel adult dogs [2]; i.v. 2.0 mg/Kg, 10 min): +9.0%
Changes(%) of basal values, coronery sinus out flow (mongrel adult dogs [2]; i.v. 2.0 mg/Kg, 15 min): +8.0%
Changes(%) of basal values, coronery sinus out flow (mongrel adult dogs [2]; i.v. 2.0 mg/Kg, 20 min): +4.0%
Changes(%) of basal values, coronery sinus out flow (mongrel adult dogs [2]; i.v. 2.0 mg/Kg, 25 min): +1.0%
Changes(%) of basal values, coronery sinus out flow (mongrel adult dogs [2]; i.v. 2.0 mg/Kg, 30 min): 0%
Changes(%) of basal values, coronery sinus out flow (mongrel adult dogs [2]; i.v. 2.0 mg/Kg, imm.): -13.0%
Changes(%) of basal values, arterial mean blood pressure (mongrel adult dogs [3]; i.v. 0.2 mg/Kg, 1 min): -1.0%
Changes(%) of basal values, arterial mean blood pressure (mongrel adult dogs [3]; i.v. 0.2 mg/Kg, 5 min): -2.0%
Changes(%) of basal values, arterial mean blood pressure (mongrel adult dogs [3]; i.v. 0.2 mg/Kg, 10 min): -1.5%
Changes(%) of basal values, arterial mean blood pressure (mongrel adult dogs [3]; i.v. 0.2 mg/Kg, 15 min): -1.0%
Changes(%) of basal values, arterial mean blood pressure (mongrel adult dogs [3]; i.v. 0.2 mg/Kg, 20 min): 0%
Changes(%) of basal values, arterial mean blood pressure (mongrel adult dogs [3]; i.v. 0.2 mg/Kg, 25 min): 0%
Changes(%) of basal values, arterial mean blood pressure (mongrel adult dogs [3]; i.v. 0.2 mg/Kg, 30 min): 0%
Changes(%) of basal values, arterial mean blood pressure (mongrel adult dogs [3]; i.v. 0.2 mg/Kg, imm.): -3.0%
Changes(%) of basal values, arterial mean blood pressure (mongrel adult dogs [3]; i.v. 0.6 mg/Kg, 1 min): -2.0%
Changes(%) of basal values, arterial mean blood pressure (mongrel adult dogs [3]; i.v. 0.6 mg/Kg, 5 min): -1.5%
Changes(%) of basal values, arterial mean blood pressure (mongrel adult dogs [3]; i.v. 0.6 mg/Kg, 10 min): -1.0%
Changes(%) of basal values, arterial mean blood pressure (mongrel adult dogs [3]; i.v. 0.6 mg/Kg, 15 min): -1.0%
Changes(%) of basal values, arterial mean blood pressure (mongrel adult dogs [3]; i.v. 0.6 mg/Kg, 20 min): 0%
Changes(%) of basal values, arterial mean blood pressure (mongrel adult dogs [3]; i.v. 0.6 mg/Kg, 25 min): 0%
Changes(%) of basal values, arterial mean blood pressure (mongrel adult dogs [3]; i.v. 0.6 mg/Kg, 30 min): 0%
Changes(%) of basal values, arterial mean blood pressure (mongrel adult dogs [3]; i.v. 0.6 mg/Kg, imm.): -6.0%
Changes(%) of basal values, arterial mean blood pressure (mongrel adult dogs [3]; i.v. 2.0 mg/Kg, 1 min): -35.0%
Changes(%) of basal values, arterial mean blood pressure (mongrel adult dogs [3]; i.v. 2.0 mg/Kg, 5 min): -2.0%
Changes(%) of basal values, arterial mean blood pressure (mongrel adult dogs [3]; i.v. 2.0 mg/Kg, 10 min): -1.0%
Changes(%) of basal values, arterial mean blood pressure (mongrel adult dogs [3]; i.v. 2.0 mg/Kg, 15 min): 0%
Changes(%) of basal values, arterial mean blood pressure (mongrel adult dogs [3]; i.v. 2.0 mg/Kg, 20 min): -1.0%
Changes(%) of basal values, arterial mean blood pressure (mongrel adult dogs [3]; i.v. 2.0 mg/Kg, 25 min): -2.0%
Changes(%) of basal values, arterial mean blood pressure (mongrel adult dogs [3]; i.v. 2.0 mg/Kg, 30 min): -2.0%
Changes(%) of basal values, arterial mean blood pressure (mongrel adult dogs [3]; i.v. 2.0 mg/Kg, imm.): -55.0%
Changes(%) of basal values, heart rate (mongrel adult dogs [4]): 0%
